According to patent US7407745B1, “Method for screening anticancer agent” (Chugai Seiyaku Kabushiki Kaisha, priority 1999, dated 2008):

Assays:
[1] = tested on: all-trans-retinoic acid resistant acute promyelocytic leukemia; conditions: in combination with all-trans retinoic acid; cited from earlier work
GAL4-Sp3 = experiment: Reporter assay using the GAL4 binding sequence (pG5-luc), GAL4-Sp3, MG63 cells; format: cell-based, human; conditions: GAL4-Sp3 (full-length Sp3, amino acids 1-653), TSA 500 ng/ml, 24 hours
Text: This yielded pM-Sp1, pM-Sp3, pM-DNSp1, and pM-DNSp3, respectively. Each of the Sp1 and Sp3 genes was amplified by PCR. Specifically, pM-Sp1 production employed Sp1-S (5′-acaggtgagcttga-3′/SEQ ID NO: 4) and Sp1-AS (5′-tcagaagccattgcc-3′/SEQ ID NO: 5) as primers and used pPacSp1 as template for amplification (Kadonaga, J. T. et al., (1987) Cell 51:1079-1090). pM-DNSp1 production employed DNSp1-S (5′-[…]-3′/SEQ ID NO: 6) and DNSp1-AS (5′-gaagcatgcacctgc-3′/SEQ ID NO: 7) as primers and used pM-Sp1 as template for amplification (Kadonaga, J. T. et al., (1987) Cell 51: 1079-1090). pM-Sp3 production employed Sp3-18F (5′-[…]-3′/SEQ ID NO: 8) and Sp3-2R (5′-[…]-3′/SEQ ID NO: 9) as primers and used Marathon-Ready cDNA (Human Fetal Liver) (Clontech, Cat. #7403-1) as template for amplification (Chris, K. et al., (1992) J. Biol. Chem. 12: 4251-4261). pM-DNSp3 production employed Sp3-11F (5′-[…]-3′/SEQ ID NO: 10) and Sp3-2R (SEQ ID NO: 9) as primers and used pM-Sp3 as template for amplification (Chris, K. et al., (1992) J. Biol. Chem. 12: 4251-4261). All PCRs were carried out by performing 30 cycles of 94° C. for 1 minute, 55° C. for 30 seconds, and 72° C. for 30 seconds. The resulting PCR amplified product was inserted into a pM vector and the nucleotide sequence was confirmed using a DNA sequencer, ABI PRISM 355 (Applied Bio System). […]

[2] = tested on: Sp1 binding sequence in the p21/WAF1/Cip1 promoter; experiment: Gel shift assay (EMSA) with nuclear extracts of TSA-treated and untreated MG63 cells; design: species or system human; conditions: 500 ng/ml TSA for 24 hours vs untreated
Description: First, MG63 cells were incubated at 37° C. in a humidified atmosphere of 5% CO2 using DMEM medium (GIBCO BRL) containing 10% fetal calf serum (GIBCO BRL). Nuclear extracts of these cells were prepared from both TSA-treated and untreated cells, according to the method of Dignam et al. (Dignam, J. D. et al., (1983) Nucleic Acids Res. 11:1475-1489). First, cells cultured in a dish (100 mm) were incubated for 24 hours with 500 ng/ml TSA (Wako). This was then washed twice with cold PBS containing 0.5 mM 4-(2-aminoethyl)benzenesulfonyl fluoride HCl (p-ABSF) (Wako), the cells were scraped from the plate, and suspended in 10 mM Hepes/KOH buffer (pH7.9) containing 10 mM KCl, 1.5 mM MgCl2, 0.5 mM DTT, 5 mM NaF, 5 mM NaVO4, and 0.5 mM p-ABSF. After placing on ice for 10 minutes, the cells were disrupted using a Dounce homogenizer. […]
Next, based on the TSA-dependent promoter sequence (5′-CGGGTCCCGCCTCCTT-3′/SEQ ID NO: 1) located −87 to −72 bp from the transcription start site of the p21/WAF1/Cip1 gene, oligonucleotides (5′-[…]-3′/SEQ ID NO: 2, and 5′-[…]-3′/SEQ ID NO: 3) were synthesized. […] The reaction solution was resolved by electrophoresis on a 6% acrylamide gel and the proteins that bind to the p21/WAF1/Cip1 probe were detected using BAS 2000 (Fujix).

p21/WAF1/Cip1 promoter = experiment: Luciferase reporter assay of p21/WAF1/Cip1 promoter (pWWP, pWPdel-BstXI) with dominant negative Sp3, MG63 cells; format: cell-based, human; conditions: pWWP and pWPdel-BstXI reporters, forced expression of DNSp3 (pCMV-DNSp3), TSA 500 ng/ml
[3] = tested on: GAL4-Sp3 deletion mutant proteins; experiment: Reporter assay using the GAL4 binding sequence (pG5-luc), GAL4-Sp3 deletion mutants, MG63 cells; format: cell-based, human; conditions: TSA 500 ng/ml, 24 hours
Text: This yielded pM-Sp1, pM-Sp3, pM-DNSp1, and pM-DNSp3, respectively. Each of the Sp1 and Sp3 genes was amplified by PCR. Specifically, pM-Sp1 production employed Sp1-S (5′-acaggtgagcttga-3′/SEQ ID NO: 4) and Sp1-AS (5′-tcagaagccattgcc-3′/SEQ ID NO: 5) as primers and used pPacSp1 as template for amplification (Kadonaga, J. T. et al., (1987) Cell 51:1079-1090). pM-DNSp1 production employed DNSp1-S (5′-[…]-3′/SEQ ID NO: 6) and DNSp1-AS (5′-gaagcatgcacctgc-3′/SEQ ID NO: 7) as primers and used pM-Sp1 as template for amplification (Kadonaga, J. T. et al., (1987) Cell 51: 1079-1090). pM-Sp3 production employed Sp3-18F (5′-[…]-3′/SEQ ID NO: 8) and Sp3-2R (5′-[…]-3′/SEQ ID NO: 9) as primers and used Marathon-Ready cDNA (Human Fetal Liver) (Clontech, Cat. #7403-1) as template for amplification (Chris, K. et al., (1992) J. Biol. Chem. 12: 4251-4261). pM-DNSp3 production employed Sp3-11F (5′-[…]-3′/SEQ ID NO: 10) and Sp3-2R (SEQ ID NO: 9) as primers and used pM-Sp3 as template for amplification (Chris, K. et al., (1992) J. Biol. Chem. 12: 4251-4261). All PCRs were carried out by performing 30 cycles of 94° C. for 1 minute, 55° C. for 30 seconds, and 72° C. for 30 seconds. The resulting PCR amplified product was inserted into a pM vector and the nucleotide sequence was confirmed using a DNA sequencer, ABI PRISM 355 (Applied Bio System). As a control for the transfection test, pM that only expresses the GAL4 DNA binding domain was employed. The reporter plasmid (pG5-luc) used to indicate the dependence of transcriptional activation, on GAL4 was pGL3-Basic Vector (Promega), which carried the 5×GAL4 binding sequence, E1B minimum promoter, and TATA sequence, upstream of the luciferase gene.
The expression vector described above encoding various Sp1 or Sp3 GAL4 fusion proteins and the abovementioned vector carrying a luciferase reporter gene downstream of the consensus 5×GAL4 binding sequence were cotransfected into MG63 cells using SuperFect following the method by QIAGEN. Namely, cells were seeded at a density of 0.8×10^5 cells/well in a 12-well plate. After 24 hours, a pre-mixed reaction solution containing 0.5 μg of reporter plasmid, 2.5 μg of expression vector, and SuperFect were added to the MG63 cells and the mixture was reacted for 2 hours. Subsequently, the cells were cultured for 24 hours under normal culture conditions, cultured for another 24 hours with or without (control) 500 ng/ml of TSA, and then, the cells were lysed. Using luciferase substrate (Promega), luciferase activity of the cell lysates was measured using LB-96P (Berthold). The measured values were normalized and were expressed as activity per amount of protein. Transcriptional induction due to TSA treatment was calculated as a ratio with respect to the TSA-untreated control value (activation amplification by TSA).
Next, reporter assay was performed using various Sp3 deletion mutants fused to the GAL4 DNA binding domain in order to identify the TSA responsive region of Sp3. First, pM-Sp3 (1-398), pM-Sp3 (81-398), pM-Sp3 (161-398), pM-Sp3 (241-398), pM-Sp3 (1-80), pM-Sp3 (1-160), pM-Sp3 (1-240), and pM-Sp3 (1-320) were prepared. They respectively carry regions corresponding to the indicated amino acid numbers. […]
As a control for the transfection test, pM expressing only the GAL4 DNA binding domain was used. […] Transfection using these genes followed the same method as described above, and the occurrence of transcriptional induction due to TSA treatment in these mutants was monitored.

[4] = tested on: consensus Sp1 binding sequence; experiment: Luciferase reporter assay of 3xSp1 binding sequence (Sp1-luc, mtSp1-luc) with dominant negative Sp3, MG63 cells; format: cell-based, human

Compound: sodium phenylbutyrate
- remission of leukemia [1]: complete remission

Compound: CC(/C=C/C(=O)NO)=C\[C@@H](C)C(=O)c1ccc(N(C)C)cc1 [TSA, Trichostatin A]
- transcriptional induction of the luciferase gene by TSA (ratio to TSA-untreated control) (GAL4-Sp3): strong transcriptional induction
- amount of DNA bound by Sp1 and Sp3 [2]: a difference in the amount of DNA bound by Sp1 and Sp3 due to the presence or absence of TSA treatment could not be observed
- transcriptional induction of p21/WAF1/Cip1 by TSA (p21/WAF1/Cip1 promoter): remarkably repressed by DNSp3
- TSA dependent transcriptional induction ([3]; GAL4-DNSp3 (amino acids 399-653)): no longer showed TSA dependent transcriptional induction
- TSA dependent transcriptional induction ([3]; GAL4-Sp3 (1-80)): induction due to TSA treatment disappeared
- TSA dependent transcriptional induction ([3]; GAL4-Sp3 (1-398)): stronger than with GAL4-Sp3
- TSA dependent transcriptional induction ([3]; GAL4-Sp3 (81-160) alone): almost no activity
- TSA dependent transcriptional induction ([3]; GAL4-Sp3 (241-398)): induction due to TSA treatment disappeared
- TSA dependent transcriptional induction driven by the consensus Sp1 binding sequence ([4]; Sp1-luc reporter, forced expression of DNSp3, TSA 500 ng/ml): marked repression
- transcriptional induction by TSA ([4]; mtSp1-luc reporter (mutated Sp1 binding sequence), TSA 500 ng/ml): did not take place
